# Measurements reported in publication PMC10376059, “New NADPH Oxidase 2 Inhibitors Display Potent Activity against Oxidative Stress by Targeting p22^phox-p47^phox Interactions” (Antioxidants, 2023).
# Tests used:
# [1] = molecular target: T1, NADPH oxidase (NOX2) (Homo sapiens, UniProt P14598); assay: NADPH oxidase activity by lucigenin chemiluminescence in HL-60 membrane preparations; type: biochemical; conditions: PMA 0.8 µM, compound 50 µM, vs control
# T1 construct: HL-60 cells expressed the components of NOX2, including gp91, p22^phox, p47^phox, and p67^phox; endogenous in cells; whole cells in A1, membrane preparations in A3 and A4
# T1 sequence (P14598 1-390): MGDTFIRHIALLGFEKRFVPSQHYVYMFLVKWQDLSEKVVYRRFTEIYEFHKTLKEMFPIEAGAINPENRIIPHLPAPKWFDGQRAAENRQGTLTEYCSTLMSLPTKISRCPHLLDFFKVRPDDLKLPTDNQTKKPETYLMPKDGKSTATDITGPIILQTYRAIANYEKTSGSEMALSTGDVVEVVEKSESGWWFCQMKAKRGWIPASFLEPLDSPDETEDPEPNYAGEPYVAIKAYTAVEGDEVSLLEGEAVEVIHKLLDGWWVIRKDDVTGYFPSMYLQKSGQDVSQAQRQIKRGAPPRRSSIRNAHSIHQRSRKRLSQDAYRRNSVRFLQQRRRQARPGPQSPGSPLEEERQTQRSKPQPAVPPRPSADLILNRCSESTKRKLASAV
# Procedure: (§1) Neutrophil-differentiated HL-60 cells (2 × 10^6 cells/mL) were incubated at 37 °C in a humid atmosphere with 5% CO2 and 50 μM of the different acrylonitrile compounds, then PMA 0.8 μM was added and incubated for 1 h to induce the activation of the enzyme NADPH oxidase. As a positive inhibition control, VAS2870 (20 μM) was used. Another two controls were performed: one with cells activated by PMA in the presence of DMSO, and the other (NA, non-activated) with cells in the absence of PMA and the acrylonitrile compounds. In 15 mL conical tubes, 5 mL of cell suspension from each treatment and control condition was transferred at 2 × 10^6 cells/mL and centrifuged at 1000 rpm at 4 °C for 10 min. The supernatant was then discarded, and each pellet was re-suspended in 2 mL of a 4% PBS solution with 2 mM EGTA and 0.25 mM PMSF frozen at −80 °C for 10 min. Then each pellet was thawed on ice. […]
# The chemiluminescence analysis of lucigenin derivatives was used to determine the activity of NADPH oxidase in a suspension of membrane preparations of HL-60 cells. […] Chemiluminescence was measured for 1 h at 2 min intervals with a Synnergy H1 hybrid luminometer multi-mode microplate reader and GEN5 program (Biotek Instruments, Inc., Winooski, VT, USA). […] The activity was expressed as relative units of luminescence per second, relative to the control.
# [2] = molecular target: T1, NADPH oxidase (NOX2); assay: NOX2 activity by cytochrome C reduction in HL-60 membrane preparations; type: biochemical; conditions: HL-60 membrane homogenates, increasing concentrations
# Procedure: as §1, with “[…],” for “were incubated at 37 °C in a humid atmosphere with 5% CO2 and 50 μM of the different acrylonitrile compounds,”, “min.” for “min. The supernatant was then discarded, and each pellet was re-suspended in 2 mL of a 4% PBS solution with 2 mM EGTA and 0.25 mM PMSF frozen at −80 °C for 10 min. Then each pellet was thawed on ice.”
# The membrane preparations from the neutrophil-differentiated HL-60 cells, treated with the different indole heteroaryl-acrylonitrile derivatives, were re-suspended in PBS with 10 μL/mL of the protease inhibitor cocktail (in mM): 104 (4-(2-aminoethyl)benzenesulfonylfluoride hydrochloride); 1.4 N-(trans-epoxysuccinyl)-L-leucine-4-guanidinobutyric; 2 leupeptin hemisulfate; 4 bestatin hydrochloride; 1.5 pepstatin A; and 80 μM aprotinin. Total proteins were quantified by the bicinchoninic acid (BCA) method using the commercial kit BCA™ (Thermo Scientific Pierce™, Rockford, IL, USA), using BSA as a standard. […] The reaction was monitored at 550 nm for 30 min at 25 °C using PBS as a blank.
smiles,measurement,setting,value
N#C/C(=C\c1cc(-c2ccccc2)on1)C(=O)c1c[nH]c2ccccc12 [Compound C6],"ROS production, lucigenin chemiluminescence (in words)",[1],significantly reduce ROS production
same,"superoxide production, cytochrome C reduction (in words)",[2],reduced superoxide production in a concentration-dependent manner
N#C/C(=C\c1ccncc1)C(=O)c1c[nH]c2ccccc12 [Compound C14],"ROS production, lucigenin chemiluminescence (in words)",[1],significantly reduce ROS production
same,"superoxide production, cytochrome C reduction (in words)",[2],reduced superoxide production in a concentration-dependent manner
